The results in this text go back to patent publication US9062041B2 (Bayer Intellectual Property GmbH, priority 2011, dated 2015).

The nature of data set [1]: Pharmacokinetic parameters after intravenous administration. The data set is classed as in vivo, rat. Particulars: for half-life: plasma. Here is the method:
5. Determination of the Pharmacokinetic Parameters after Intravenous Administration
5.1. Intravenous Administration:
For this, the substances were administered in dissolved form, compatible solubilizers such as PEG400 and/or ethanol being used in tolerable quantity. The substances were administered at a dosage of 0.1-1 mg/kg. The administration was effected in the female rat as a bolus injection. Here, at various times after bolus injection ca. 100-150 μl blood samples were withdrawn from the jugular vein via a catheter. The blood samples were treated with lithium-heparin as anticoagulant and stored refrigerated until further work-up. After centrifugation of the samples for 15 mins at 3000 rpm, an aliquot of 100 μl was withdrawn from the supernatant (plasma) and precipitated by addition of 400 μl of cold acetonitrile or methanol (absolute). The precipitated samples were frozen overnight at −20° C., then centrifuged once again for 15 mins at 3000 rpm, before 150 μl of the clear supernatant was withdrawn for the concentration determination. The analysis was performed with an Agilent 1200 HPLC system with attached LCMS/MS detection.
5.2 Calculation of the PK Parameters
The calculation was performed by means of the PK calculation software WinNonLin®, where t1/2 means half-life within a specified interval (here: terminal t1/2, in hrs).

The target of data set [2] is EP2 subtype of the human PGE2 receptor (Homo sapiens, UniProt P43116). Kind of data set: cAMP antagonism test on the human EP2 receptor (HTRF cAMP detection). The conditions noted are these: hEP2 receptor. It counts as cell-based. The procedure, abridged: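 Cells expressing human EP2 preincubated 20 min at RT with compound (0.8 nM–16.5 μM), then stimulated 60 min with PGE2 (3× solution 1.5 nM) in PBS-IBMX. After 20 min lysis, cAMP measured by competitive HTRF with cAMP-d2 and Eu cryptate anti-cAMP antibody (665/620 nm ratio).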

The subject of data set [3] is cumulus-oocyte complexes. The experiment in a line: Cumulus expansion test in vitro. The data set is classed as cell-based, mice (strain: B6D2F1). The conditions noted are these: for inhibition at 1 µM / inhibition at 0.5 µM: Mus musculus, 0.3 μM PGE2 for stimulation; for inhibition at 1 µM: read-out: % reduction at 1 μM (reduction in the cumulus expansion); for inhibition at 0.5 µM: read-out: % reduction at 0.5 μm (reduction in the cumulus expansion). The protocol:
4.2. Cumulus Expansions Test In Vitro In immature female mice (strain: B6D2F1 from Charles River), at an age of 14-18 days, the folliculogenesis was induced by a single administration (intraperitoneal) of 10 IU of PMSG (pregnant mare serum gonadotropin; Sigma G-4877, Lot 68H0909). 47-50 hours after the injection, the ovaries were removed and the cumulus-oocyte complexes removed. At this stage, the cumulus complex is not yet expanded. The cumulus-oocyte complexes were now incubated for 20-24 hours with prostaglandin E2 (PGE) (0.3 μM), vehicle control (ethanol) or test substances. Medium: alpha-MEM medium with 0.1 mM IBMX, pyruvate (0.23 mM), glutamine (2 mM), pen/strep 100 IU/ml pen. and 100 μg/ml strep.), HSA (8 mg/ml) and foetal bovine serum (FBS, 10%). The cumulus expansion was then established through the subdivision into four stages (after Vanderhyden et al. Dev Biol. 1990 August; 140(2):307-317).

The target in data set [4] is EP4 subtype of the human PGE2 receptor (Homo sapiens, UniProt P35408). Kind of data set: cAMP antagonism test on the human EP4 receptor (HTRF cAMP detection). It counts as cell-based. The conditions noted are these: selectivity towards hEP4, IC50 measured by cAMP antagonism test. In short, it runs like this:
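Cells expressing human EP4 preincubated 20 min at RT with compound (0.8 nM–16.5 μM), then stimulated with PGE2 (0.3 nM in 3× solution, with IBMX) 60 min at RT. After lysis, cAMP measured by HTRF competition (665/620 nm ratio); antagonism seen as rise in FRET signal.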

Where [5] appears, read: after intravenous administration in the female rat, read-out: Terminal half-life t1/2 (converted).

Like-named read-outs stand apart in the source and are kept apart here.

EP2 subtype of the human PGE2 receptor, sequence (P43116 whole entry): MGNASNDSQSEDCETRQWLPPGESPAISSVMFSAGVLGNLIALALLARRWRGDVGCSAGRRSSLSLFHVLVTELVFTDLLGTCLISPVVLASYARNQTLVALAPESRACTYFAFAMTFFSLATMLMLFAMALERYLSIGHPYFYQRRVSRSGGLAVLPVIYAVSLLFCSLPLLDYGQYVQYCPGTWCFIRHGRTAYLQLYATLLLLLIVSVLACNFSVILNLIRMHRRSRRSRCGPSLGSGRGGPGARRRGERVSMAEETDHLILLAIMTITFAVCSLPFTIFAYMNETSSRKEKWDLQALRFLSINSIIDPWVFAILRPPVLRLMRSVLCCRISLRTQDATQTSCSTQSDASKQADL
EP4 subtype of the human PGE2 receptor, sequence (P35408 whole entry): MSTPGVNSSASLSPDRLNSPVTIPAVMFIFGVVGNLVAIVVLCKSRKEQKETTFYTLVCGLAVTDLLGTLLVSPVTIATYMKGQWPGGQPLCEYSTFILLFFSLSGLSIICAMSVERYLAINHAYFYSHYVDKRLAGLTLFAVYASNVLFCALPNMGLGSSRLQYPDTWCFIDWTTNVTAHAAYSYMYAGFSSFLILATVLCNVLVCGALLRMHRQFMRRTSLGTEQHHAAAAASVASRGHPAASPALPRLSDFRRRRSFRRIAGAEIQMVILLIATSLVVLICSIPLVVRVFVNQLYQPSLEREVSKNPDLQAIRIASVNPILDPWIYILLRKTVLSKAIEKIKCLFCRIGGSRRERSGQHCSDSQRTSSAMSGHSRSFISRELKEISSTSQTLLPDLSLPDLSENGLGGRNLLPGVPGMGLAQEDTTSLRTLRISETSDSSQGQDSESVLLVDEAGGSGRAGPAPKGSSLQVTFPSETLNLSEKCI

Take `COCCNC(=O)c1ccc2nn(CC3CCN(C(=O)c4ccc(-c5ccc(F)cc5)cc4F)CC3)cc2c1C` [Example 42, 2-({1-[(3,4′-difluoro-biphenyl-4-yl)-carbonyl]piperidin-4-yl}methyl)-N-(2-methoxyethyl)-4-methyl-2H-indazol-5-carboxamide]: the half-life in data set [1] (setting [5]) is 3.2 h. Further, in data set [2] (read-out: Antagonism hEP2 IC50), the IC50 came to 4.75 nM. In addition, in data set [3], the inhibition at 1 µM was determined as 79% and the inhibition at 0.5 µM turned out to be 48%. The “Selectivity hEP2/hEP4” value in data set [4] is listed as “xxx (xxx > 100)”.
`COCCNC(=O)c1ccc2nn(CC3CCN(C(=O)c4ccc(Oc5ccc(C(F)(F)F)cc5)cc4)CC3)cc2c1C` [Example 17, N-(2-methoxyethyl)-4-methyl-2-[(1-{4-[4-(trifluoromethyl)-phenoxy]benzoyl}-piperidin-4-yl)-methyl]-2H-indazol-5-carboxamide]: in data set [1] (after intravenous administration in the female rat), the “Terminal half-life t1/2” value is 2.5 h. In addition, the half-life in data set [1] (intravenous administration, female rat, read-out: terminal half-life t1/2 (converted)) was 2.5 h. The IC50 in data set [2] (read-out: Antagonism hEP2 IC50) came to 3.44 nM. In addition, the IC50 in data set [2] (read-out: IC50) amounted to 3.4 nM. Also, the “suppression of the cumulus expansion” value in data set [3] (0.5 μM, PGE2 0.3 μM) is reported as “ca. 70%”. Also, in data set [3], the inhibition at 1 µM stood at 76% and the inhibition at 0.5 µM turned out to be 71%. In addition, in data set [4], the “Selectivity hEP2/hEP4” value was “xxx (xxx > 100)”.
For `Cc1c(C(=O)NCC(F)(F)F)ccc2nn(CC3CCN(C(=O)c4ccc(Oc5ccc(F)cc5)cc4)CC3)cc12` [Example 283, 2-({1-[4-(4-fluorophenoxy)benzoyl]piperidin-4-yl}methyl)-4-methyl-N-(2,2,2-trifluoroethyl)-2H-indazol-5-carboxamide], the half-life in data set [1] (setting [5]) was 5.8 h. Further, in data set [2] (read-out: Antagonism hEP2 IC50), the concentration for half-maximal inhibition (IC50) stood at 65.5 nM. In data set [3], the inhibition at 1 µM was 26% and the inhibition at 0.5 µM amounted to 25%. The “Selectivity hEP2/hEP4” value in data set [4] is recorded as “xxx (xxx > 100)”.
The matching figures for `COCCNC(=O)c1ccc2nn(CC3CN(C(=O)c4ccc(Cl)cc4)C3)cc2c1C` [Example 117, 2-{[1-(4-chlorobenzoyl)azetidin-3-yl]methyl}-N-(2-methoxyethyl)-4-methyl-2H-indazol-5-carboxamide]: 2 h, 17.8 nM, 54%, 30% and “xxx (xxx > 100)”.
